The text below walks through data of ChEMBL document CHEMBL1125967, “Total synthesis of L-2,2-difluoro-2-deoxy-MYO-inositol 1,4,5-trisphosphate, a potent inhibitor of the enzymes of d-MYO-inositol 1,4,5-trisphosphate metabolism” (Bioorg Med Chem Lett, 1991).

Assay [1] deals with Inositol 1,4,5-trisphosphate receptor (Homo sapiens, UniProt Q14571+Q14573+Q14643). The experiment in a line: Compound was evaluated for its effective dose to inhibit the calcium release as a measure of affinity for Inositol 1,4,5-trisphosphate receptor. Type of assay: functional.
The target in assay [2] is T1, Inositol polyphosphate-5-phosphatase A (Homo sapiens, UniProt Q14642).
T1 sequence (Q14642 whole entry): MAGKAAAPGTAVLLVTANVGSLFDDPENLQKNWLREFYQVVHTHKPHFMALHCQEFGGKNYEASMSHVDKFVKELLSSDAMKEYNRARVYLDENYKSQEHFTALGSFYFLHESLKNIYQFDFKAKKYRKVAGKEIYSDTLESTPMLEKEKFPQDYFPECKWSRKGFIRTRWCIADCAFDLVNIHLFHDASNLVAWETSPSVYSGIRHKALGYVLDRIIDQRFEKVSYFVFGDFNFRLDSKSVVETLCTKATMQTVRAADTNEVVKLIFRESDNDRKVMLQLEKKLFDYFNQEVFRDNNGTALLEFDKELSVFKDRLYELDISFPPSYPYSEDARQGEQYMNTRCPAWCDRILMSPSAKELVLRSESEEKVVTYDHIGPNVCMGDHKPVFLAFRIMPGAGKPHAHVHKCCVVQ
The experiment in a line: Compound was evaluated for binding affinity towards Inositol-1,4,5-trisphosphate 5-phosphatase.

Assay [3] is described as follows: Inhibition of inositol-trisphosphate phosphorylation. Also on record: species or system Rattus norvegicus.
In assay [4] the target is Inositol 1,4,5-trisphosphate-gated calcium channel ITPR3 (Homo sapiens, UniProt Q14573). Description: Compound was evaluated for its effective dose to inhibit the calcium release as a measure of affinity for Ins(1,4,5)P3 receptor. It counts as functional.
Chain of Inositol 1,4,5-trisphosphate-gated calcium channel ITPR3 (Q14573 whole entry): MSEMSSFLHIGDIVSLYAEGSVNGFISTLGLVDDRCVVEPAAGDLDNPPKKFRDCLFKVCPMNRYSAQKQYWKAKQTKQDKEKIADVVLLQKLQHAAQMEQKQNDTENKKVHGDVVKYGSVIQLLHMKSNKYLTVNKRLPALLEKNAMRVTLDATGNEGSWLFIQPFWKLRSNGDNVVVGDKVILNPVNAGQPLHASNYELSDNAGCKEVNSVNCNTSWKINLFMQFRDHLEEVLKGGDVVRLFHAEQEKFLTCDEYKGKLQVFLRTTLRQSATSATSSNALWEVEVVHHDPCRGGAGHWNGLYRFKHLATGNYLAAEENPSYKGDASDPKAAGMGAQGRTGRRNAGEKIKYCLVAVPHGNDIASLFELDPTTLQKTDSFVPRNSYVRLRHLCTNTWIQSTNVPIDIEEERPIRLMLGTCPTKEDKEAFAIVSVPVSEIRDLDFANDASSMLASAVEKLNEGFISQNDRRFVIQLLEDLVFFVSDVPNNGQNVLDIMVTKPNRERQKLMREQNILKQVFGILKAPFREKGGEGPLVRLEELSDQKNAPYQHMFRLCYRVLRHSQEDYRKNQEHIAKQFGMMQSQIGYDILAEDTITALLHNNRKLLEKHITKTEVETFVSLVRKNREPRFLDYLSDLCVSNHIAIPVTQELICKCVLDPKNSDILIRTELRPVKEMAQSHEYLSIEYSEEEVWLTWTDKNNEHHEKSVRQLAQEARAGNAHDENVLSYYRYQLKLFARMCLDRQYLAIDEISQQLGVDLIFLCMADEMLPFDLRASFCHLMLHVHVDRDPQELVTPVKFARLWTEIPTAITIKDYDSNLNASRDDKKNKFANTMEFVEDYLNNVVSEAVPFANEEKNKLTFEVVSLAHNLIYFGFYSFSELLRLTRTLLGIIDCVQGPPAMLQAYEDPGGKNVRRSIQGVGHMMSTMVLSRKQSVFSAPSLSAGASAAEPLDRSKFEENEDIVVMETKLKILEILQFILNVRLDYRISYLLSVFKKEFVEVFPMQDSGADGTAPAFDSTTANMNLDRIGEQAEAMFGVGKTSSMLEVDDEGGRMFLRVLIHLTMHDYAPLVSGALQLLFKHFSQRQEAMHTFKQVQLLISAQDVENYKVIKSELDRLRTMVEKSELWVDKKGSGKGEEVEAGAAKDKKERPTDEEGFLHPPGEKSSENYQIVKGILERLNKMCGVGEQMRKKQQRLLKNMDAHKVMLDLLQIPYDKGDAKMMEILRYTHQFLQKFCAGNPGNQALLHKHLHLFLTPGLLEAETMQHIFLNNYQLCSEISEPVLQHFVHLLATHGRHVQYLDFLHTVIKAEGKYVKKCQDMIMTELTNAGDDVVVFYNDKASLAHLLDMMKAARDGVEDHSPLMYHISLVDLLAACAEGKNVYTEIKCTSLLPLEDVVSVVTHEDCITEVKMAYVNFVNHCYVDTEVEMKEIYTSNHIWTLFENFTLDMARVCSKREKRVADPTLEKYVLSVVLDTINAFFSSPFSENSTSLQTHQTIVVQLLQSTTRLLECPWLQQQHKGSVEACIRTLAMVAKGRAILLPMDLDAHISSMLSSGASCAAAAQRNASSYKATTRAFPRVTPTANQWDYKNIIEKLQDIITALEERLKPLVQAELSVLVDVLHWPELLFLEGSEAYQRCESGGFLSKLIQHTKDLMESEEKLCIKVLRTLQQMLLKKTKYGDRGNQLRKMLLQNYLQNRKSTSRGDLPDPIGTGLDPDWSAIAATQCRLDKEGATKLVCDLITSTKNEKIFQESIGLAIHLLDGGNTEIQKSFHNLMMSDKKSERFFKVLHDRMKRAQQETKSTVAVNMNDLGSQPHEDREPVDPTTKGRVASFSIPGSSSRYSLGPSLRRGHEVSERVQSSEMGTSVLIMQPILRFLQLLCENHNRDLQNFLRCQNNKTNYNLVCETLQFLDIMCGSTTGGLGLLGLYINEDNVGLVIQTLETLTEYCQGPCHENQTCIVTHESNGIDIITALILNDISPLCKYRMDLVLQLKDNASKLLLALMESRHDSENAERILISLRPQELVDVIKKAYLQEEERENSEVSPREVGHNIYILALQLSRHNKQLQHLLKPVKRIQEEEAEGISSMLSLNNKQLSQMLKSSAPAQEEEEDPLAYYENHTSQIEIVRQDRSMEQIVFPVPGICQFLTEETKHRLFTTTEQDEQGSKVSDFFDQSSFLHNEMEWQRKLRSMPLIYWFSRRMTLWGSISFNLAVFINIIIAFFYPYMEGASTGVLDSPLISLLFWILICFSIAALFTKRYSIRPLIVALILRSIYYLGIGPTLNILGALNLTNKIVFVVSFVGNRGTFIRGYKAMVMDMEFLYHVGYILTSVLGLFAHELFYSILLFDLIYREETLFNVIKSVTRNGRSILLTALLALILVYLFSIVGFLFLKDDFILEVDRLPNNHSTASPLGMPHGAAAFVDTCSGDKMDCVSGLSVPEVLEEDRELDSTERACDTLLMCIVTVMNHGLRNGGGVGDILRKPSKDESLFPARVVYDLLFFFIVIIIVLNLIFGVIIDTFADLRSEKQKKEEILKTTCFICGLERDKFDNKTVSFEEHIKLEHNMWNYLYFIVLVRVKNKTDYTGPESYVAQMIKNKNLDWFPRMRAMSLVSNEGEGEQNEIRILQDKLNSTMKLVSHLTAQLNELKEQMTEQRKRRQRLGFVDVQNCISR

As usually defined, the EC50 is the concentration that produces a half-maximal response. With `O=P(O)(O)OC1C(O)C(OP(=O)(O)O)C(F)(F)C(O)C1OP(=O)(O)O` (stereo in doubt), in assay [1], the EC50 stood at 0.41 µM. Broadly, the Ki is the equilibrium dissociation constant of an inhibitor or competing ligand from its target. Low readings indicate tighter binding, high ones weaker binding. For the molecule `O=P(O)(O)OC1C(O)C(OP(=O)(O)O)C(F)(F)C(O)C1OP(=O)(O)O` (stereo in doubt; L-(4b)), the EC50 in assay [1] stood at 53 µM. For the same molecule, the Ki came to 26 µM in assay [2] and 11.5 µM in assay [3]. `O=P(O)(O)OC1C(O)C(OP(=O)(O)O)C(F)(F)C(O)C1OP(=O)(O)O` (stereo not given): the EC50 in assay [4] stood at 0.21 µM.
